Measurements taken from patent US11427548B2 (Arvinas Operations, Inc., priority 2015, dated 2022).
Read-outs that look alike come from different tables or passages of the source.

Target: T1, Androgen Receptor (Homo sapiens, UniProt P10275)
T1 construct: endogenous in cells; host or cells: VCaP cells
T1 sequence (P10275 1-920): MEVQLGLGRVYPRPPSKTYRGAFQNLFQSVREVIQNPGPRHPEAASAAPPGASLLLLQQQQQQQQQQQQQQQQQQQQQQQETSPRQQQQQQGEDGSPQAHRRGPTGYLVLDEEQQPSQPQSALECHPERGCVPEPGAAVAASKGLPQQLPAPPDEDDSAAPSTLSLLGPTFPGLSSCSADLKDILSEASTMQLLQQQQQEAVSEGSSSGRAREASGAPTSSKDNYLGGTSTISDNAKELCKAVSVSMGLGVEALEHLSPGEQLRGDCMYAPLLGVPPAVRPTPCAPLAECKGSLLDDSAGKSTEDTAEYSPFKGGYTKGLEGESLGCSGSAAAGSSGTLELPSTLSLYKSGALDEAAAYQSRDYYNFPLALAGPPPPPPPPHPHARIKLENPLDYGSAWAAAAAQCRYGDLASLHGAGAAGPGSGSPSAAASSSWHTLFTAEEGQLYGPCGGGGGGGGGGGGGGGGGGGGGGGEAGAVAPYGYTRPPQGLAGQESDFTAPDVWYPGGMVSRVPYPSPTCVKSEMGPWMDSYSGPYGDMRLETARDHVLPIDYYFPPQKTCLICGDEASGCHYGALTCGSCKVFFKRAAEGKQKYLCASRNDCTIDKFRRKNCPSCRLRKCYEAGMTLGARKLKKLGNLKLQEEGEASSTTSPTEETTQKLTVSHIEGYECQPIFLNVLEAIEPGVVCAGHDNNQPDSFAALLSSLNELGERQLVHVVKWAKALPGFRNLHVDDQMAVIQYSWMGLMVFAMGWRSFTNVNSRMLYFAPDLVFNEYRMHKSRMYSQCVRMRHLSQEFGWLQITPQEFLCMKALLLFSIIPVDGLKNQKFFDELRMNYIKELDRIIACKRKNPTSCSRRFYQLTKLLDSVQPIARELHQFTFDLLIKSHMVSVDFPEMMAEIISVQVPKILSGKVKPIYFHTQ
Assay: Androgen Receptor ELISA assay (PathScan AR ELISA) in VCaP cells: AR degradation, Dmax and DC50
Assay type: cell-based
In short: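 After 24 h exposure of VCaP cells (charcoal-stripped serum, 0.1 nM R1881 agonist, 0.1% DMSO) to seven half-log compound concentrations, residual AR in lysates was measured by PathScan ELISA (TMB absorbance, 450 nm). Cells were plated at 30,000/well and grown at least 3 days beforehand.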

[1] = read-out: VCaP DC50; VCaP cells; Table 36
[2] = VCaP cells; Table 36; read-out: VCaP DC50
[3] = VCaP, VCaP cells; Table 36; read-out: VCaP Dmax (%)

| DC50 [2] | Dmax [3] | SMILES | Dmax (VCaP, read-out: VCaP Dmax (%)) | DC50 [1] |
| --- | --- | --- | --- | --- |
| – | – | Cc1ncsc1-c1ccc([C@H](C)NC(=O)[C@@H]2C[C@@H](O)CN2C(=O)C(NC(=O)COCCCOCC[C@@H](O)CCOc2ccc(N3C(=S)N(c4ccc(C#N)c(C(F)(F)F)c4)C(=O)C3(C)C)cc2)C(C)(C)C)cc1 (stereo partly shown) [Example 613, 1-(2-(2-(3-((5-(4-(3-(4-cyano-3-(trifluoromethyl)phenyl)-5,5-dimethyl-4-oxo-2-thioxoimidazolidin-1-yl)phenoxy)-3-hydroxypentyl)oxy)pro-poxy)acetamido)-3,3-dimethylbutanoyl)-4-hydroxy-N-(1-(4-(4-methylthiazol-5-yl)phenyl)ethyl)pyrrolidine-2-carboxamide] | 26 to 50% | > 501 nM |
| – | – | Cc1ncsc1-c1ccc([C@H](C)NC(=O)[C@@H]2C[C@@H](O)CN2C(=O)[C@@H](NC(=O)CN2CCO[C@H](COCCCCCOc3ccc(N4C(=S)N(c5ccc(C#N)c(C(F)(F)F)c5)C(=O)C4(C)C)cc3)C2)C(C)(C)C)cc1 [Example 614, (2S,4R)-1-((S)-2-(2-((S)-2-(((5-(4-(3-(4-cyano-3-(trifluoromethyl)phenyl)-5,5-dimethyl-4-oxo-2-thioxoimidazolidin-1-yl)phenoxy)pentyl)oxy)methyl)morpholino)ace-tamido)-3,3-dimethylbutanoyl)-4-hydroxy-N-((S)-1-(4-(4-methylthiazol-5-yl)phenyl)ethyl)pyrrolidine-2-carboxamide] | 26 to 50% | > 501 nM |
| < 50 nM | > 71% | Cc1ncsc1-c1ccc([C@H](C)NC(=O)[C@@H]2C[C@@H](O)CN2C(=O)[C@@H](NC(=O)CN2CCN(CCOc3ccc(C(=O)N[C@H]4C(C)(C)[C@H](Oc5ccc(C#N)c(Cl)c5)C4(C)C)cc3)CC2)C(C)(C)C)cc1 [Example 615, (2S,4R)-1-((S)-2-(2-(4-(2-(4-(((1r,3r)-3-(3-chloro-4-cyanophenoxy)-2,2,4,4-tetramethylcyclobutyl)carbamoyl)phenoxy)eth-yl)piperazin-1-yl)acetamido)-3,3-dimethylbutanoyl)-4-hydroxy-N-((S)-1-(4-(4-methylthiazol-5-yl)phenyl)ethyl)pyrrolidine-2-carboxamide] | – | – |
| – | – | Cc1ncsc1-c1ccc([C@H](C)NC(=O)[C@@H]2C[C@@H](O)CN2C(=O)C(C(C)C)n2cnc(-c3ccnc(N4CC[C@H](Oc5ccc(N6C(=S)N(c7ccc(C#N)c(C(F)(F)F)c7)C(=O)C6(C)C)cc5)C4)c3)c2)cc1 (stereo partly shown) [Example 617, 1-(2-(4-(2-(3-(4-(3-(4-cyano-3-(trifluoromethyl)phenyl)-5,5-dimethyl-4-oxo-2-thioxoimidazolidin-1-yl)phenoxy)pyrrolidin-1-yl)pyridin-4-yl)-1H-imidazol-1-yl)-3-methylbutanoyl)-4-hydroxy-N-(1-(4-(4-methylthiazol-5-yl)phenyl)ethyl)pyrrolidine-2-carboxamide] | < 25% | > 501 nM |
| – | – | Cc1ncsc1-c1ccc([C@H](C)NC(=O)[C@@H]2C[C@@H](O)CN2C(=O)[C@@H](NC(=O)COCCCOCCCCCNc2ccc(N3C(=S)N(c4ccc(C#N)c(C(F)(F)F)c4)C(=O)C3(C)C)cn2)C(C)(C)C)cc1 [Example 618, (2S,4R)-1-((S)-2-(2-(3-((5-((5-(3-(4-cyano-3-(trifluoromethyl)phenyl)-5,5-dimethyl-4-oxo-2-thioxoimidazolidin-1-yl)pyridin-2-yl)amino)pentyl)oxy)pro-poxy)acetamido)-3,3-dimethylbutanoyl)-4-hydroxy-N-((S)-1-(4-(4-methylthiazol-5-yl)phenyl)ethyl)pyrrolidine-2-carboxamide] | 51 to 70% | < 50 nM |
| – | – | Cc1ncsc1-c1ccc([C@H](C)NC(=O)[C@@H]2CC3CN2C(=O)C(C(C)(C)C)NC(=O)COCCCOCCC(CCOc2ccc(N4C(=S)N(c5ccc(C#N)c(C(F)(F)F)c5)C(=O)C4(C)C)cc2)OC(=O)CC/C=C/CCC(=O)O3)cc1 (stereo partly drawn) [Example 619, (3S,25R,27S,E)-3-(tert-butyl)-14-(2-(4-(3-(4-cyano-3-(trifluoromethyl)phenyl)-5,5-dimethyl-4-oxo-2-thioxoimidazolidin-1-yl)phenoxy)ethyl)-N-((S)-1-(4-(4-methylthiazol-5-yl)phenyl)ethyl)-2,5,16,23-tetraoxo-7,11,15,24-tetraoxa-1,4-diazabicyclo[23.2.1]oct-acos-19-ene-27-carboxamide] | < 25% | > 501 nM |
| – | – | Cc1ncsc1-c1ccc([C@H](C)NC(=O)[C@@H]2CC3CN2C(=O)C(C(C)(C)C)NC(=O)COCCCOCCC(CCOc2ccc(N4C(=S)N(c5ccc(C#N)c(C(F)(F)F)c5)C(=O)C4(C)C)cc2)OC(=O)CC/C=C/CCC(=O)O3)cc1 (stereo partly drawn) [Example 620, (3S,25R,27S,E)-3-(tert-butyl)-14-(2-(4-(3-(4-cyano-3-(trifluoroemthyl)phenyl)-5,5-dimethyl-4-oxo-2-thioxoimidazolidin-1-yl)phenoxy)ethyl)-N-((S)-1-(4-(4-methylthiazol-5-yl)phenyl)ethyl)-2,5,16,23-tetraoxo-7,11,15,24-tetraoxa-1,4-diazabicyclo[23.2.1]oct-acos-19-ene-27-carboxamide] | – | > 501 nM |
| – | – | Cc1ncsc1-c1ccc([C@H](C)NC(=O)[C@@H]2C[C@@H]3CN2C(=O)[C@H](C(C)(C)C)NC(=O)COCCCOCCC(CCOc2ccc(N4C(=S)N(c5ccc(C#N)c(C(F)(F)F)c5)C(=O)C4(C)C)cc2)OC(=O)CCc2cn(nn2)CCCCCC(=O)O3)cc1 (stereo partly drawn) [Example 621, (93R,95S,11S,Z)-11-(tert-butyl)-22-(2-(4-(3-(4-cyano-3-(trifluoromethyl)phenyl)-5,5-dimethyl-4-oxo-2-thioxoimidazolidin-1-yl)phenoxy)ethyl)-N-((S)-1-(4-(4-methylthiazol-5-yl)phenyl)ethyl)-7,10,13,24-tetraoxo-11H-8,15,19,23-tetraoxa-12-aza-1(1,4)-triazola-9(3,1)-pyrrolidinacyclohexaco-saphane-95-carboxamide] | < 25% | > 501 nM |
| – | – | Cc1ncsc1-c1ccc([C@H](C)NC(=O)[C@@H]2C[C@@H](O)CN2C(=O)[C@@H](NC(=O)CN2CCO[C@H](CN3CCO[C@@H](COc4ccc(N5C(=S)N(c6ccc(C#N)c(C(F)(F)F)c6)C(=O)C5(C)C)cc4)C3)C2)C(C)(C)C)cc1 [Example 622, (2S,4R)-1-((S)-2-(2-((R)-2-(((R)-2-((4-(3-(4-cyano-3-(trifluoromethyl)phenyl)-5,5-dimethyl-4-oxo-2-thioxoimidazolidin-1-yl)phenoxy)methyl)mor-pholino)methyl)mor-pholino)acetamido)-3,3-dimethylbutanoyl)-4-hydroxy-N-((S)-1-(4-(4-methylthiazol-5-yl)phenyl)ethyl)pyrrolidine-2-carboxamide] | < 25% | > 501 nM |
| < 50 nM | > 71% | Cc1ncsc1-c1ccc([C@H](C)NC(=O)C2C[C@@H](O)CN2C(=O)C(NC(=O)CN2CCC(OCCOc3ccc(C(=O)N[C@H]4C(C)(C)[C@H](Oc5ccc(C#N)c(Cl)c5)C4(C)C)cc3)CC2)C(C)(C)C)cc1 (stereo partly drawn) [Example 623, (2S,4R)-1-((S)-2-(2-(4-(2-(4-(((1r,3r)-3-(3-chloro-4-cyanophenoxy)-2,2,4,4-tetramethylcyclobutyl)carbamoyl)phenoxy)eth-oxy)piperidin-1-yl)acetamido)-3,3-dimethylbutanoyl)-4-hydroxy-N-((S)-1-(4-(4-methylthiazol-5-yl)phenyl)ethyl)pyrrolidine-2-carboxamide] | – | – |
